Measurements taken from US12208111B2 (LUNELLA BIOTECH, INC., priority 2018, dated 2025).
Like-named read-outs stand apart in the source and are kept apart here.

Columns and labels:
Type in all cases: cell-based, human
[1] = system: normal control MRC-5 cells; test: xCELLigence real-time cell analysis, normal MRC-5 fibroblasts; details: 90 μM
Source text: (§1) In further application of the present approach, the selectivity of azithromycin towards senescent cells was validated using the xCELLigence system. Because senescent cells undergo the so-called senescence-associated secretory phenotype (SASP), which involves dramatic increases in the synthesis and secretion of proteins, the inventors assessed whether the protein measurement assay system under-estimates the senolytic activity of tested compounds. […] The normalized cell index for the control was noticeably higher immediately after treatment, and coincided with the BrdU-only curve until about hour 235. […] For the data shown in FIGS. 9A and 9B, the **** indicates p<0.001. The real-time xCELLigence assay system thus compliments the more static SRB assay, and offers a more direct visualization of the potential senolytic effects of compounds during drug screening. The xCELLigence assays were also used to confirm senolytic activity for roxithromycin and telithromycin. […] MRC-5 fibroblasts were used for these assays. […] Note that in FIG. 10A. * indicates p<0.01. From top to bottom at time 249 hours, the lines represent the control, BrdU-only, Control with roxithromycin (90 μM), and BrdU with roxithromycin. […] The same approach was used to confirm senolytic activity for telithromycin. […] This approach allows the quantification of the onset and kinetics of the cellular response. […]

senescent MRC-5 cells [2] = test: xCELLigence real-time cell analysis, senescent (BrdU-treated) MRC-5 fibroblasts; details: 90 μM, 5 days after BrdU wash out
Source text: as §1

[3] = system: normal MRC-5 lung fibroblasts; test: SRB assay, viability of normal MRC-5 fibroblasts; details: 100 μM, 5 days
Method: Bromodeoxyuridine (5-bromo-2′-deoxyuridine), also known as BrdU, may be used to induce senescence. BrdU is an analog of the nucleoside thymidine commonly used to identify proliferating cells. BrdU induces controlled DNA damage, and drives cells towards senescence with high efficiency. The BrdU assay of the present approach calls for subjecting normal fibroblasts to prolonged culture (8-days) in the presence of BrdU at 100 μM to induce controlled DNA-damage and senescence. […] Then, isogenically-matched cultures of normal and senescent fibroblasts may be used for drug screening to identify drugs having senolytic activity. Senolytic activity may be detected using the sulforhodamine B assay, also known in the art as the SRB assay. This assay measures the amount of protein remaining attached to the tissue-culture dishes, and is a surrogate marker for cell viability. This approach may be used to rapidly screen compounds, including clinically-approved drugs, such as, for example, antibiotics. […] It should be appreciated that the present approach may be used to screen other compounds. […]
Sulphorhodamine B assay: After the incubation of the plates cell viability was measured by Sulphorhodamine B assay (SRB). […] Finally, the protein-bound dye was dissolved in a 10 mM Tris, pH 8.8, solution and read using a plate reader at 540-nm.

senescent MRC-5 cells [4] = test: SRB assay, viability of BrdU-induced senescent MRC-5 fibroblasts
Method: Bromodeoxyuridine (5-bromo-2′-deoxyuridine), also known as BrdU, may be used to induce senescence. BrdU is an analog of the nucleoside thymidine commonly used to identify proliferating cells. BrdU induces controlled DNA damage, and drives cells towards senescence with high efficiency. The BrdU assay of the present approach calls for subjecting normal fibroblasts to prolonged culture (8-days) in the presence of BrdU at 100 μM to induce controlled DNA-damage and senescence. […] Then, isogenically-matched cultures of normal and senescent fibroblasts may be used for drug screening to identify drugs having senolytic activity. Senolytic activity may be detected using the sulforhodamine B assay, also known in the art as the SRB assay. This assay measures the amount of protein remaining attached to the tissue-culture dishes, and is a surrogate marker for cell viability. This approach may be used to rapidly screen compounds, including clinically-approved drugs, such as, for example, antibiotics. […] It should be appreciated that the present approach may be used to screen other compounds.
After that, the SRB assay was performed to determine the effects of the drug on cell viability. […] The scale bar in the upper-right of FIGS. 3B and 3C represents 20 μm.
After the 5-day exposure, the SRB assay was performed to determine the effects of the drug on cell viability. […] The * indicates p<0.05 in FIG. 4.
MRC-5 or BJ cells were plated into 24-well plates. Next day, half of the plate was treated with 100 μM of BrdU while control wells were treated with vehicle only (DMSO) and incubated for 8 days at 37° C. in a 5% CO2 humidified atmosphere. […] BrdU is washed out before the drug treatments.
Sulphorhodamine B assay: After the incubation of the plates cell viability was measured by Sulphorhodamine B assay (SRB). The assay is based on the measurement of cellular protein contents. Cells were fixed with 10% Trichloroacetic acid (TCA) for 1 hour at 4 °C, and were dried overnight at room temperature. Then, plates were incubated with SRB for 30 min, washed twice with 1% acetic acid and air dried for at least 1 h. Finally, the protein-bound dye was dissolved in a 10 mM Tris, pH 8.8, solution and read using a plate reader at 540-nm.

MRC-5 cells = test: Beta-galactosidase staining; details: 8 days of BrdU treatment
Method: Furthermore, the inventors validated the use of BrdU-induced DNA-damage as being sufficient to induce cellular senescence. […] The results evidence that the cells treated with BrdU underwent cell cycle arrest, as evidenced by both a ˜70% reduction in the number of cells in S-phase, and the induction of beta-galactosidase activity.
Beta-Gal staining: Beta-Galactosidase staining of BrdU-treated MRC-5 cells was performed by Senescence B-Galactosidase Staining Kit (#9860, Cell Signalling Technology Inc.) and was done according to manufacturer's protocol.

MRC-5 fibroblasts = test: DNA synthesis / cell cycle, Muse cell cycle kit; details: two-day treatment with BrdU
Method: The […] […] Autophagy and Cell cycle analysis: Autophagy (using MuseTMM Autophagy LC3-antibody based Kit, Merck Millipore) and cell cycle (Muse® Cell Cycle Kit, Merck Millipore) experiments were performed according to manufacturer's instructions.

SMILES | effect on viability of normal MRC-5 fibroblasts (final cell index) [1] | senescent MRC-5 cells targeted (final cell index) (senescent MRC-5 cells [2]) [%] | effect on viability of normal MRC-5 fibroblasts [3] | Viability of senescent MRC-5 cells (% versus control) (senescent MRC-5 cells [4]; 50 μM) [%] | effect on senescent MRC-5 cell viability (senescent MRC-5 cells [4]; 50 μM, 5 days) | Viability of senescent MRC-5 cells (% versus control) (senescent MRC-5 cells [4]; 100 μM) [%] | senolytic activity in the screening assay (senescent MRC-5 cells [4]; 100 μM) | beta-galactosidase staining (biomarker of cellular senescence) (MRC-5 cells) | reduction of DNA synthesis (MRC-5 fibroblasts) [%] | senolytic activity in the screening assay (senescent MRC-5 cells [4])
CC[C@H]1OC(=O)[C@H](C)[C@@H](O[C@H]2C[C@@](C)(OC)[C@@H](O)[C@H](C)O2)[C@H](C)[C@@H](O[C@@H]2O[C@H](C)C[C@H](N(C)C)[C@H]2O)[C@](C)(O)C[C@@H](C)/C(=N\OCOCCOC)[C@H](C)[C@@H](O)[C@]1(C)O [Roxithromycin, roxithromycin] | minimal effect | 82 | small effect | 100 | no effect | 30.99 | have senolytic activity |  |  | 
O=c1[nH]c(=O)n([C@H]2C[C@H](O)[C@@H](CO)O2)cc1Br [BrdU, 5-bromo-2′-deoxyuridine] |  |  |  |  |  |  |  | positively stained | ~70 | 
CC[C@H]1OC(=O)[C@H](C)[C@@H](O[C@H]2C[C@@](C)(OC)[C@@H](O)[C@H](C)O2)[C@H](C)[C@@H](O[C@@H]2O[C@H](C)C[C@H](N(C)C)[C@H]2O)[C@](C)(O)C[C@@H](C)C(=O)[C@H](C)[C@@H](O)[C@]1(C)O [Erythromycin, erythromycin] |  |  |  | 100 |  | 100 |  |  |  | did not show any senolytic activity
CC[C@H]1OC(=O)[C@H](C)C(=O)[C@H](C)[C@@H](O[C@@H]2O[C@H](C)C[C@H](N(C)C)[C@H]2O)[C@](C)(OC)C[C@@H](C)C(=O)[C@H](C)[C@H]2N(CCCCn3cnc(-c4cccnc4)c3)C(=O)O[C@]12C [Telithromycin, telithromycin] | negligible impact | 100 |  |  |  |  |  |  |  | showed beneficial senolytic activity
